Data published in patent US9695205B2, “Amide compounds for treatment of complement mediated disorders” (Achillion Pharmaceuticals, Inc., priority 2014, dated 2017).

Molecular target: Human factor D (Homo sapiens (Human), UniProt P00746)
Test: Human Factor D Assay
Format: biochemical
Conditions: Human factor D 80 nM, substrate Z-L-Lys-SBzl and DTNB 100 μM each, pH 7.5
Procedure: Example 14. Human Factor D Assay
Human factor D (purified from human serum, Complement Technology, Inc.) at 80 nM final concentration is incubated with test compound at various concentrations for 5 minutes at room temperature in 50 mM Tris, 1M NaCl, pH 7.5. A synthetic substrate Z-L-Lys-SBzl and DTNB (Ellman's reagent) are added to final concentrations of 100 μM each. The increase in color is recorded at OD405 nm in a microplate in kinetic mode over 30 minutes with 30 second time points in a spectrofluorimeter. IC50 values are calculated by non-linear regression from the percentage of inhibition of complement factor D activity as a function of test compound concentration.

Chain of Human factor D (P00746 26-253): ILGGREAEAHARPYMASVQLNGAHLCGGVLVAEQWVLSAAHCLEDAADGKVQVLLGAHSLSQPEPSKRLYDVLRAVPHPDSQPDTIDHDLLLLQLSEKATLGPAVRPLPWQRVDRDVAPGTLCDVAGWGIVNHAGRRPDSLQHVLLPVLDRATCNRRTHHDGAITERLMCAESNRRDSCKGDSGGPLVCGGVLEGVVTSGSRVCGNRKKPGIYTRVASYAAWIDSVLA

Compound `CC(=O)c1cn(CC(=O)N2C[C@H](F)C[C@H]2C(=O)NCc2cccc(Cl)c2F)c2cc(C(=O)NS(=O)(=O)c3ccccc3)ccc12` [Compound 53] has an IC50 of under 1000 nM.
